Results taken from patent publication US7135457B1, “Random peptides that bind to gastro-intestinal tract (GIT) transport receptors and related methods” (Cytogen Corporation, priority 1997, dated 2006).
Peptide text beside a SMILES is read from it. * marks the point of attachment. Dansyl = CN(C)c1cccc2c(S(=O)(=O)*)cccc12

How the values were obtained:
[1] = test system: P100 membrane fractions derived from Caco-2 cells; assay: Dansylated peptide ELISA on P100: PAX2 and HAX42 peptides relative binding
Description: The peptides and proteins were analyzed by a dansylated peptide ELISA method in which 96 well plates were coated overnight at 4° C. with 100 μl/well coating protein (normally 100 μg/ml P100 membrane fraction) in 0.05M carbonate buffer pH9.6. Nonspecific binding was blocked using 200 μl/well, 2% Marvel/PBS for 2 hours at 37° C. prior to incubation with dansylated peptides. The plates were washed three times with PBS/0.05% Tween 20 and after each subsequent incubation step. […] A buffer blank control was included to ensure that background binding to plastic was not due to the antibodies used in the assay system. […] The plates were then incubated with an anti-mouse λ-HRP conjugated antibody (Southern Biotech 1060-05) at a 1:10,000 dilution in blocking solution, 100 μl/well for 1 hour at room temperature. Plates were developed using 75 μl/well Bionostics TMB substrate and incubated for approximately 10 minutes. The developing reaction was stopped using Bionostics Red Stop solution (25 μl/well), and the optical density of the plates was read at 650 nm.

[2] = Drug potency, peptide loading and size of coacervated particles; assay type: physicochemical; conditions: formulation 1 particles (coacervation), blend
[3] = HAX42 peptides, ratio to ZElan021 (arbitrary 1.00), first 50 μg/ml column
[4] = HAX42 peptides, ratio to ZElan021 (arbitrary 1.00), second 50 μg/ml column
[5] = HAX42 peptides, ratio to ZElan021 (arbitrary 1.00)
[6] = PAX2 peptides, ratio to ZElan021 (HAX42 = 1.00), first 20 μg/ml column
[7] = PAX2 peptides, ratio to ZElan021 (HAX42 = 1.00), first 50 μg/ml column
[8] = PAX2 peptides, ratio to ZElan021 (HAX42 = 1.00), second 50 μg/ml column
[9] = PAX2 peptides, ratio to ZElan021 (HAX42 = 1.00), second 20 μg/ml column

| Compound | Binding value at 50 μg/ml [1, 3] | Binding value at 50 μg/ml [1, 4] | Binding value at 20 μg/ml [1, 6] | Binding value at 50 μg/ml [1, 7] | Binding value at 50 μg/ml [1, 8] | further results |
| --- | --- | --- | --- | --- | --- | --- |
| CC(C)C[C@H](NC(=O)[C@H](CC(N)=O)NC(=O)[C@@H](N)CCCCNS(=O)(=O)c1cccc2c(N(C)C)cccc12)C(=O)N[C@@H](CCCNC(=N)N)C(=O)N[C@@H](CO)C(=O)N[C@@H](CC(=O)O)C(=O)N[C@@H](CC(N)=O)C(=O)N[C@@H](C)C(=O)N[C@@H](CCCCN)C(=O)N[C@@H](CCC(=O)O)C(=O)N1CCC[C@H]1C(=O)NCC(=O)N[C@@H](CC(=O)O)C(=O)N[C@@H](Cc1ccc(O)cc1)C(=O)N[C@@H](CC(N)=O)C(=O)N[C@@H](CS)C(=O)N[C@@H](CS)C(=O)NCC(=O)N[C@@H](CC(N)=O)C(=O)NCC(=O)N[C@@H](CC(N)=O)C(=O)N[C@@H](CO)C(=O)N[C@H](C(=O)NCC(=O)N[C@@H](CCCNC(=N)N)C(=O)N[C@@H](CCCCN)C(=O)N[C@H](C(=O)N[C@@H](Cc1ccccc1)C(=O)N[C@@H](CC(N)=O)C(=O)N[C@@H](CCCNC(=N)N)C(N)=O)C(C)C)[C@@H](C)O [ZElan071] (H-K(Dansyl)NLRSDNAKEPGDYNCCGNGNSTGRKVFNR-NH2) | 0.89 | 0.75 |  |  |  |  |
| CC[C@H](C)[C@H](NC(=O)[C@H](C)NC(=O)[C@H](CO)NC(=O)[C@@H]1CCCN1C(=O)[C@H](CCCNC(=N)N)NC(=O)[C@H](CCCNC(=N)N)NC(=O)[C@H](CC(N)=O)NC(=O)[C@H](Cc1ccccc1)NC(=O)[C@@H](NC(=O)[C@H](CCCCN)NC(=O)[C@H](CCCNC(=N)N)NC(=O)CNC(=O)[C@@H](NC(=O)[C@H](CO)NC(=O)[C@H](CC(N)=O)NC(=O)CNC(=O)[C@H](CC(N)=O)NC(=O)CNC(=O)[C@H](CS)NC(=O)[C@H](CS)NC(=O)[C@H](CC(N)=O)NC(=O)[C@H](Cc1ccc(O)cc1)NC(=O)[C@H](CC(=O)O)NC(=O)CNC(=O)[C@@H]1CCCN1C(=O)[C@@H](N)CCCCNS(=O)(=O)c1cccc2c(N(C)C)cccc12)[C@@H](C)O)C(C)C)C(=O)N1CCC[C@H]1C(=O)N[C@H](C(N)=O)[C@@H](C)O [ZElan072] (H-K(Dansyl)PGDYNCCGNGNSTGRKVFNRRPSAIPT-NH2) | 0.61 | 0.88 |  |  |  | Binding value at 20 μg/ml [1, 5]: 0.83 |
| CC(C)C[C@H](NC(=O)[C@H](CCCNC(=N)N)NC(=O)[C@H](CCCNC(=N)N)NC(=O)[C@H](CC(N)=O)NC(=O)[C@H](Cc1c[nH]cn1)NC(=O)[C@H](CO)NC(=O)[C@H](CO)NC(=O)[C@@H](N)CCCCNS(=O)(=O)c1cccc2c(N(C)C)cccc12)C(=O)N[C@@H](CCCNC(=N)N)C(=O)N[C@@H](C)C(=O)N[C@@H](CCCNC(=N)N)C(N)=O [ZElan081] (H-K(Dansyl)SSHNRRLRAR-NH2) |  |  | 0.01 | 0.89 | 0.47 |  |
| CC(C)C[C@H](NC(=O)[C@H](CCCNC(=N)N)NC(=O)[C@H](CCCNC(=N)N)NC(=O)[C@H](CC(N)=O)NC(=O)[C@H](Cc1c[nH]cn1)NC(=O)[C@H](CO)NC(=O)[C@H](CO)NC(=O)[C@@H](N)CCCCNS(=O)(=O)c1cccc2c(N(C)C)cccc12)C(=O)N[C@@H](CCCNC(=N)N)C(=O)N[C@H](C(=O)N[C@@H](C)C(N)=O)[C@@H](C)O [ZElan082] (H-K(Dansyl)SSHNRRLRTA-NH2) |  |  | 0.00 | 0.92 | 0.40 |  |
| CC(C)C[C@H](NC(=O)[C@H](CCCNC(=N)N)NC(=O)[C@H](CO)NC(=O)[C@@H](NC(=O)[C@H](CCCCN)NC(=O)[C@H](CC(N)=O)NC(=O)[C@H](CCCNC(=N)N)NC(=O)[C@@H](NC(=O)[C@H](CC(N)=O)NC(=O)[C@H](CCCNC(=N)N)NC(=O)[C@@H](N)CCCCNS(=O)(=O)c1cccc2c(N(C)C)cccc12)[C@@H](C)O)[C@@H](C)O)C(=O)N[C@@H](CO)C(=O)N[C@@H](C)C(=O)N[C@@H](CC(N)=O)C(=O)N1CCC[C@H]1C(=O)N[C@@H](Cc1c[nH]cn1)C(=O)N[C@@H](CCCNC(=N)N)C(=O)N[C@@H](CO)C(=O)N[C@@H](Cc1c[nH]cn1)C(=O)N[C@@H](CCCNC(=N)N)C(N)=O [ZElan084] (H-K(Dansyl)RNTRNKTSRLSANPHRSHR-NH2) |  |  |  |  | 0.77 | Binding value at 20 μg/ml [1, 9]: 0.93 |
| H-K(Dansyl)GRNHDVVSSNTHKSYRSPRSASYPRLSNDRTDRTEPAPSS-NH2 [ZElan083] |  |  | 0.43 |  | 0.88 | Binding value at 20 μg/ml [1, 9]: 0.63 |
| H-K(Dansyl)SDHALGTNLRSDNAKEPGDYNCCGNGNSTGRKVFNRRRPSAIPT-NH2 (cysteines drawn unpaired) [ZElan021] | 1.00 | 1.00 |  |  |  | Binding value at 20 μg/ml [1, 5]: 1.00; Binding value at 25 μg/ml ([1]; HAX42 peptides, ratio to ZElan021 (arbitrary 1.00), first 25 μg/ml column): 1.00; Binding value at 25 μg/ml ([1]; HAX42 peptides, ratio to ZElan021 (arbitrary 1.00), second 25 μg/ml column): 1.00; Binding value at 25 μg/ml ([1]; HAX42 peptides, ratio to ZElan021 (arbitrary 1.00), third 25 μg/ml column): 1.00 |
| H-K(Dansyl)STPPSREAYSRPYSVDSDSDTNAKHSSHNRRLRTRSRPNG-NH2 [ZElan018] |  |  | −0.33 | 0.95 |  |  |
| SPCGGSWGRFMQGGLFGGRTDGCGAHRNRTSASLEPPSSDY [SNi34] |  |  |  |  |  | Insulin (insulin potency) ([2]; coated with the named peptide): 61.5 mg/g; Peptide (level of peptide coated onto the particles) ([2]; measured by fluorescence): 4.03 µL/mg |
